“Also recorded” adds a separate entry of the source. Bounds are passed on as bounds.

Results on three molecules are retold here after publication PMC4268243 (Nuclear medicine and biology, 2014).

The subject of one data set is DU145 tumor xenograft. The experiment in a line: Biodistribution in DU145 tumor-bearing SCID mice. The class given is in vivo. The conditions noted are these: listed as (R)-[^18F]MeFAMP 2.
Data set [1] concerns MDA MB468 estrogen-independent breast carcinoma cells. Put plainly: Amino acid uptake and inhibition in MDA MB468 cells. The conditions noted are these: MDA MB468, 30 minutes incubation. It is filed as cell-based, human.
Data set [2] deals with SCID mice xenograft tumor models. The class given is in vivo. The conditions noted are these: in most cases, over tumors and time points.
The test system of data set [3] is DU145 androgen-independent prostate carcinoma cells. Put plainly: Amino acid uptake and inhibition in DU145 cells. The class given is cell-based, human. The conditions noted are these: DU145, 30 minutes incubation.
Data set [4] concerns MDA MB468 tumor xenograft. Put plainly: Biodistribution in MDA MB468 tumor-bearing SCID mice. The class given is in vivo. The conditions noted are these: listed as (R)-[^18F]MeFAMP 2.
Data set [5] deals with human A549, DU145, U87, MDA MB468 and SKOV3 tumor cells. The experiment in a line: Amino acid uptake and inhibition, summary over the five tumor cell lines. The class given is cell-based.
The subject of the next data set is U87 glioblastoma cells. Put plainly: Amino acid uptake and inhibition in U87 cells. The class given is cell-based, human. The conditions noted are these: U87, 30 minutes incubation.
Another data set has as its system SKOV3 tumor xenograft. The experiment in a line: Biodistribution in SKOV3 tumor-bearing SCID mice. It is filed as in vivo. The conditions noted are these: listed as (R)-[^18F]MeFAMP 2.
For data set [6], the system named is A549 lung adenocarcinoma cells. The experiment in a line: Amino acid uptake and inhibition in A549 cells. The conditions noted are these: A549, 30 minutes incubation. It is filed as cell-based, human.
Data set [7] relates to SKOV3 estrogen-positive ovarian adenocarcinoma cells. The experiment in a line: Amino acid uptake and inhibition in SKOV3 cells. The conditions noted are these: SKOV3, 30 minutes incubation. The class given is cell-based, human.
The subject of another data set is U87 tumor xenograft. The experiment in a line: Biodistribution in U87 tumor-bearing SCID mice. It is filed as in vivo. The conditions noted are these: listed as (R)-[^18F]MeFAMP 2.
The next data set has as its system A549 tumor xenograft. Put plainly: Biodistribution in A549 tumor-bearing SCID mice. The class given is in vivo. The conditions noted are these: listed as (R)-[^18F]MeFAMP 2.
For data set [8], the system named is rat orthotopic brain tumor model. The conditions noted are these: rat model; cited from earlier work.
The nature of data set [9]: Brain uptake of [18F]FET in nude mice. The class given is in vivo.

As to `CN[C@@](C)(C[18F])C(=O)O` [(R)-[^18F]2] [3-[^18F]fluoro-2-methyl-2-N-(methylamino)propanoic acid], the uptake in liver turned out to be 7.8±1.2 %ID/g in the data set on DU145 tumor xenograft (15 min post injection), 6.8±1.3 %ID/g in the data set on U87 tumor xenograft (60 min post injection), 7.5±1.5 %ID/g in the data set with A549 tumor xenograft (30 min post injection) and 5.2±0.3 %ID/g with A549 tumor xenograft (60 min post injection). The uptake in tumor in the data set on DU145 tumor xenograft (15 min post injection) is given as 5.2±1.2 %ID/g; in the data set on SKOV3 tumor xenograft (60 min post injection), 7.5±1.8 %ID/g; in the data set on U87 tumor xenograft (30 min post injection) it was 5.9±1.1 %ID/g; in the data set on U87 tumor xenograft (60 min post injection), 5.8±0.8 %ID/g; with A549 tumor xenograft (15 min post injection) it was 5.3±1.9 %ID/g; with A549 tumor xenograft (30 min post injection) it was 6.3±1.3 %ID/g. For the same molecule, the uptake in pancreas with DU145 tumor xenograft (30 min post injection) is 53±17 %ID/g; in data set [4] (15 min post injection), 59±3.3 %ID/g; in the data set on U87 tumor xenograft (15 min post injection), 74±11 %ID/g. The uptake in spleen turned out to be 7.4±1.6 %ID/g in the data set on DU145 tumor xenograft (120 min post injection); 6.6±0.8 %ID/g in data set [4] (120 min post injection); 6.8±0.6 %ID/g in the data set on SKOV3 tumor xenograft (120 min post injection); 6.1±0.5 %ID/g in the data set with U87 tumor xenograft (120 min post injection); 9.8±1.3 %ID/g in the data set with A549 tumor xenograft (30 min post injection). For the same molecule, the Cell uptake is given as 1.5±0.2 % ID/5×10^5 cells in data set [1] (10 mM BCH); 0.5±0.2 % ID/5×10^5 cells in data set [1] (10 mM MeAIB); 1.4±0.1 % ID/5×10^5 cells in [1] (Control (no inhibitor)); 1.9±0.1 % ID/5×10^5 cells in data set [3] (10 mM BCH); 0.4±0.1 % ID/5×10^5 cells in [3] (10 mM MeAIB); 1.5±0.2 % ID/5×10^5 cells in data set [3] (Control (no inhibitor)). The Cell uptake was 3.5±0.2 % ID/5×10^5 cells with U87 glioblastoma cells (10 mM BCH); 0.6±0.1 % ID/5×10^5 cells in the data set with U87 glioblastoma cells (10 mM MeAIB); 2.7±0.3 % ID/5×10^5 cells in the data set on U87 glioblastoma cells (Control (no inhibitor)); 3.1±0.1 % ID/5×10^5 cells in data set [6] (10 mM BCH); 0.4±0.04 % ID/5×10^5 cells in data set [6] (10 mM MeAIB); 2.4±0.2 % ID/5×10^5 cells in data set [6] (Control (no inhibitor)). In addition, the Cell uptake in data set [7] (10 mM BCH) was determined as 4.5±0.7 % ID/5×10^5 cells; in [7] (10 mM MeAIB), 0.5±0.2 % ID/5×10^5 cells; in data set [7] (Control (no inhibitor)), 3.9±0.6 % ID/5×10^5 cells. The “ratio of tumor to muscle” value in data set [2] is > 4. Further, the uptake in kidney stood at 5.9±0.8 %ID/g in data set [4] (60 min post injection) and 6.8±1.3 %ID/g in the data set with U87 tumor xenograft (60 min post injection). Moreover, the “inhibition of uptake by BCH” value in data set [5] (10 mM BCH, relative to control, most cell lines) is listed as “no BCH inhibition was observed in most cases”. In data set [5] (10 mM MeAIB, relative to control, most cell lines), the “inhibition of uptake by MeAIB” value is 50-91%. Further, in data set [5] (30 minutes incubation, without inhibitors, range over the cell lines), the “uptake in tumor cells” value is 1-7 %ID/5×10^5 cells. Also, in [5] (AAT cell inhibition assays with MeAIB and BCH), the “amino acid transport system mediating uptake / selectivity” value is given as “high selectivity for system A AAT; also recorded: the most selective for system A transport”.

For `NC1(C(=O)O)CC([18F])C1` (stereo not shown) [[^18F]FACBC, [18F]1-amino-3-fluorocyclobutane-1-carboxylic acid, reference compound], the brain uptake in data set [8] is 0.26±0.03 %ID/g.

For `N[C@@H](Cc1ccc(OCC[18F])cc1)C(=O)O` [[^18F]FET, O-(2-[^18F]fluoroethyl)-L-tyrosine], in data set [9] ([18F]FET in nude mice vs [18F]1 in SCID mice), the “fold higher brain uptake than [18F]1” value was 2.5-3.5 fold. For the same molecule, the “fold higher brain uptake than [18F]2” value in data set [9] ([18F]FET in nude mice vs [18F]2 in SCID mice) was 7-14 fold.
